The values that follow come from US20250230147A1, “LACTAMS AS CBL-B INHIBITORS” (Genentech, Inc., priority 2021, published 2025).

In experiment [1] the target is c-Cbl (Homo sapiens (Human), UniProt P22681). The experiment in a line: C-Cbl LCK Ub TR-FRET assay (c-cbl Lck HTRF). In kind it is biochemical. The settings on record: for (fold-selectivity): C-cbl Lck HTRF IC50 relative to Cbl-b Lck HTRF IC50. Put shortly: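 Detection reagents added, brief spin, 20 min RT. IC50 fit normalized to no-LCK (low) and DMSO (high) controls.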
Chain of c-Cbl (P22681 47-435): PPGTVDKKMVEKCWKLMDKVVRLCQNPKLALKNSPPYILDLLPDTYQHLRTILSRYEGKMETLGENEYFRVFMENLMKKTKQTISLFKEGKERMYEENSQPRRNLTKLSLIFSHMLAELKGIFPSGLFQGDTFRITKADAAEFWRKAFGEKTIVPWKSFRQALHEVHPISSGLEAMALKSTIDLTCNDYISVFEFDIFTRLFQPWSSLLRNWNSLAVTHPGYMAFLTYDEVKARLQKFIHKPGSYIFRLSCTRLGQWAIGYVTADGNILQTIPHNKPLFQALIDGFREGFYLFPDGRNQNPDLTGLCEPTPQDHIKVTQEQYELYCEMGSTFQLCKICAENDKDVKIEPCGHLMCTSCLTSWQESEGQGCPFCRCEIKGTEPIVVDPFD
For orientation: TR-FRET usually uses a lanthanide donor and a delayed reading to cut background.

The target of experiment [2] is Cbl-b (Homo sapiens (Human), UniProt Q13191). Description: Cbl-b LCK Ub TR-FRET assay (Cbl-b Lck HTRF). The class given is biochemical. The settings on record: for fold of selectivity: Cbl-b over c-Cbl, Lck HTRF IC50. Put shortly:
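TR-FRET (340 nm excitation, 615/665 nm emission) read after adding HA-ubiquitin–UBE2D2 thioester, anti-HA-D2 and streptavidin-Eu. Beforehand, compounds incubated 60 min with biotinylated Cbl-b, then 90 min with His-LCK and ATP (1 mM in 2× mix); IC50 from 10 concentrations, DMSO high and no-LCK low controls.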

Chain of Cbl-b (Q13191 40-426): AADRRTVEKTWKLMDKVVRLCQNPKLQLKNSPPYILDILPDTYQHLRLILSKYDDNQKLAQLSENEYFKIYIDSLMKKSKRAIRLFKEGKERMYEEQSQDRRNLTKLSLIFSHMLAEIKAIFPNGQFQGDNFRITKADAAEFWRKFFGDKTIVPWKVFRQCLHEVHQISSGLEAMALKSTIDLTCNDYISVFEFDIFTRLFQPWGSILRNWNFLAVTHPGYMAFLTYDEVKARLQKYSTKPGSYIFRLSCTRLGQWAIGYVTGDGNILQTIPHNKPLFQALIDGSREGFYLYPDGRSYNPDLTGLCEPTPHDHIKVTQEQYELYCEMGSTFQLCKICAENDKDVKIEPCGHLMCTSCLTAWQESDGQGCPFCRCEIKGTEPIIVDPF

The IC50 is the midpoint of a concentration-inhibition curve. High values mean a need for much substance, low ones inhibition by little substance. As to `Cn1cnnc1[C@H](F)C1(c2cccc(N3Cc4c(cc([C@@H](N)C5CC5)cc4C(F)(F)F)C3=O)c2)COC1` [Compound 53, 6-((S)-amino(cyclopropyl)methyl)-2-(3-(3-((R)-fluoro(4-methyl-4H-1,2,4-triazol-3-yl)methyl)oxetan-3-yl)phenyl)-4-(trifluoromethyl)isoindolin-1-one], in experiment [1], the midpoint of inhibition, the IC50, lay at 63 nM and the “(fold-selectivity)” value is reported as 1.9x. In addition, 34 nM corresponded to half-maximal inhibition in experiment [2] (IC50).
`Cn1cnnc1CC1(c2cc(NCCCN3CCOCC3)nc(N3Cc4c(cc(CNC5(C)CCC5)cc4C(F)(F)F)C3=O)c2)CCC1` [Compound 303, 2-(4-(1-((4-methyl-4H-1,2,4-triazol-3-yl)methyl)cyclobutyl)-6-((3-morpholinopropyl)amino)pyridin-2-yl)-6-(((1-methylcyclobutyl)amino)methyl)-4-(trifluoromethyl)isoindolin-1-one]: the IC50 in experiment [1] was determined as 190 nM; in experiment [2] it was 310 nM. In addition, in experiment [1], the “(fold-selectivity)” value was “(0.59x)”.
On to `CC(=O)N1CCN(Cc2cc3c(c(C(F)(F)F)c2)CN(c2cccc(C4([C@H](F)c5nncn5C)COC4)c2)C3=O)[C@@H](C(C)C)C1` [Compound 194, 6-(((S)-4-acetyl-2-isopropylpiperazin-1-yl)methyl)-2-(3-(3-((S)-fluoro(4-methyl-4H-1,2,4-triazol-3-yl)methyl)oxetan-3-yl)phenyl)-4-(trifluoromethyl)isoindolin-1-one], for which the results for the IC50 in experiment [1] and in experiment [2] were 810 nM and 270 nM, respectively. In addition, in experiment [1], the “(fold-selectivity)” value worked out at 3.0x.
For `COC[C@H]1CCCN1Cc1cc2c(c(C(F)(F)F)c1)CN(c1cccc(C3([C@H](F)c4nncn4C)COC3)c1)C2=O` [Compound 156, 2-(3-(3-((S)-fluoro(4-methyl-4H-1,2,4-triazol-3-yl)methyl)oxetan-3-yl)phenyl)-6-(((R)-2-(methoxymethyl)pyrrolidin-1-yl)methyl)-4-(trifluoromethyl)isoindolin-1-one], in experiment [1], the IC50 was found to be 5200 nM and the “(fold-selectivity)” value turned out to be 5.6x. Besides, in experiment [2], inhibition was half-maximal at 920 nM (IC50) and the fold of selectivity was found to be 5.6x.
`CC(C)[C@H]1CN(C)CCN1Cc1cc2c(c(C(F)(F)F)c1)CN(c1cccc(C3(Cc4nncn4C)CC(F)(F)C3)c1)C2=O` [Compound 240, (S)-2-(3-(3,3-difluoro-1-((4-methyl-4H-1,2,4-triazol-3-yl)methyl)-cyclobutyl)phenyl)-6-((2-isopropyl-4-methylpiperazin-1-yl)methyl)-4-(trifluoromethyl)iso-indolin-1-one]: in experiment [1], the IC50 was found to be 39 nM and the “(fold-selectivity)” value was “(0.71x)”. Besides, in experiment [2], the IC50 was 54 nM.
In the same order, the values of `CC(C)C1(O)CN(Cc2cc3c(c(C(F)(F)F)c2)CN(c2cccc(C4([C@@H](F)c5nncn5C)COC4)c2)C3=O)C1` [Compound 183, (R)-2-(3-(3-(fluoro(4-methyl-4H-1,2,4-triazol-3-yl)methyl)oxetan-3-yl)phenyl)-6-((3-hydroxy-3-isopropylazetidin-1-yl)methyl)-4-(trifluoromethyl)isoindolin-1-one] are 120 nM, 2.2x and 57 nM.
In the same order, the values of `COCCN1CCC(Nc2cc(C3(Cc4nncn4C)CCC3)cc(N3Cc4c(cc(CNC5(C)CCC5)cc4C(F)(F)F)C3=O)n2)CC1` [Compound 302, 2-(6-((1-(2-methoxyethyl)piperidin-4-yl)amino)-4-(1-((4-methyl-4H-1,2,4-triazol-3-yl)methyl)cyclobutyl)pyridin-2-yl)-6-(((1-methylcyclobutyl)amino)methyl)-4-(trifluoromethyl)isoindolin-1-one] are 660 nM, “(1.1x)” and 590 nM.
In the same order, the values of `CC(C)[C@@H]1CN(Cc2cc3c(c(C(F)(F)F)c2)CN(c2cccc(C4([C@@H](F)c5nncn5C)COC4)c2)C3=O)CCN1` [Compound 92] are 24 nM, 1.2x and 20 nM.
As for `C[C@H]1CN(C)CCN1Cc1cc2c(c(C(F)(F)F)c1)CN(c1cccc(C3(Cc4nncn4C)CC(F)(F)C3)c1)C2=O` [Compound 214, (S)-2-(3-(3,3-difluoro-1-((4-methyl-4H-1,2,4-triazol-3-yl)methyl)cyclobutyl)phenyl)-6-((2,4-dimethylpiperazin-1-yl)methyl)-4-(trifluoromethyl)isoindolin-1-one], in experiment [1], inhibition was half-maximal at 41 nM (IC50) and the “(fold-selectivity)” value is on record as 0.96x. The compound also displayed an IC50 in experiment [2] of 42 nM.
On to `Cn1cnnc1CC1(c2cccc(N3Cc4c(cc(CNC5(C)CCC5)c(F)c4C(F)(F)F)C3=O)c2)CC(F)(F)C1` [Compound 244, 2-(3-(3,3-difluoro-1-((4-methyl-4H-1,2,4-triazol-3-yl)methyl)cyclo-butyl)phenyl)-5-fluoro-6-(((1-methylcyclobutyl)amino)methyl)-4-(trifluoromethyl)isoindolin-1-one], for which the half-maximal inhibitory concentration (IC50) in experiment [1] worked out at 14 nM; in experiment [2], 15 nM. For the same compound, in experiment [1], the “(fold-selectivity)” value is given as “(0.97x)”.
On to `Cn1cnnc1CC1(c2cccc(N3Cc4c(cc([C@H](N)C5CC5)cc4C(F)(F)F)C3=O)c2)CC(F)(F)C1` [Compound 435, (R)-6-(amino(cyclopropyl)methyl)-2-(3-(3,3-difluoro-1-((4-methyl-4H-1,2,4-triazol-3-yl)methyl)cyclobutyl)phenyl)-4-(trifluoromethyl)isoindolin-1-one], for which the IC50 in experiment [1] and in experiment [2] was 19 nM throughout. For the same compound, in experiment [1], the “(fold-selectivity)” value is given as “(1.0x)”.
As to `CCNCc1cc2c(c(C(F)(F)F)c1)CN(c1cccc(C3([C@@H](F)c4nncn4C)COC3)c1)C2=O` [Compound 213, (R)-6-((ethylamino)methyl)-2-(3-(3-(fluoro(4-methyl-4H-1,2,4-triazol-3-yl)methyl)oxetan-3-yl)phenyl)-4-(trifluoromethyl)isoindolin-1-one], in experiment [1], half-maximal inhibition (IC50) was put at 61 nM and the “(fold-selectivity)” value came out at 1.6x. Besides, in experiment [2], the IC50 amounted to 38 nM.
For `CN1CC2CC(C1)N2Cc1cc2c(c(C(F)(F)F)c1)CN(c1cccc(C3(Cc4nncn4C)CC(F)(F)C3)c1)C2=O` [Compound 412, 2-(3-(3,3-difluoro-1-((4-methyl-4H-1,2,4-triazol-3-yl)methyl)cyclobutyl)phenyl)-6-((3-methyl-3,6-diazabicyclo[3.1.1]heptan-6-yl)methyl)-4-(trifluoromethyl)isoindolin-1-one], the IC50 amounted to 51 nM in experiment [1] and 50 nM in experiment [2]. The “(fold-selectivity)” value in experiment [1] is on record as “(1.1x)”.
In the case of `CC(C)[C@H]1CN(CC(F)(F)F)CCN1Cc1cc2c(c(C(F)(F)F)c1)CN(c1cccc(C3([C@H](F)c4nncn4C)COC3)c1)C2=O` [Compound 201, 2-(3-(3-((S)-fluoro(4-methyl-4H-1,2,4-triazol-3-yl)methyl)oxetan-3-yl)phenyl)-6-(((S)-2-isopropyl-4-(2,2,2-trifluoroethyl)piperazin-1-yl)methyl)-4-(trifluoromethyl)isoindolin-1-one], in experiment [1], half-maximal inhibition (IC50) required 3000 nM and the “(fold-selectivity)” value was 13 x. For the same compound, in experiment [2], the IC50 came out at 220 nM and the fold of selectivity is 13.6x.
Turning to `Cn1cnnc1[C@@H](F)C1(c2cccc(N3Cc4c(cc(CN5CC6(CC6)C5)cc4C(F)(F)F)C3=O)c2)COC1` [Compound 79], in experiment [1], it took 270 nM to reach half-maximal inhibition (IC50) and the “(fold-selectivity)” value was 1.6x. The midpoint of inhibition in experiment [2], the IC50, lay at 170 nM.
For `C[C@@H](N)c1cc2c(c(C(F)(F)F)c1)CN(c1cccc(C3(Cc4nncn4C)CC(F)(F)C3)c1)C2=O` [Compound 385, (R)-6-(1-aminoethyl)-2-(3-(3,3-difluoro-1-((4-methyl-4H-1,2,4-triazol-3-yl)methyl)cyclobutyl)phenyl)-4-(trifluoromethyl)isoindolin-1-one], in that order: 22 nM, “(0.93x)” and 24 nM.
With `Cn1cnnc1C[C@]1(c2cccc(N3Cc4c(cccc4C(F)(F)F)C3=O)c2)C[C@H](F)C1` [Compound 100, 2-(3-((1r,3s)-3-fluoro-1-((4-methyl-4H-1,2,4-triazol-3-yl)methyl)cyclobutyl)phenyl)-4-(trifluoromethyl)isoindolin-1-one], the IC50 in experiment [1] worked out at 380 nM; in experiment [2], 190 nM. In addition, the “(fold-selectivity)” value in experiment [1] is on record as 1.9x.
In the same order, the values of `CC(C)[C@H]1CN(C)CCN1Cc1cc2c(c(C(F)(F)F)c1)CN(c1cccc([C@]3([C@H](F)c4nncn4C)CCO3)c1)C2=O` (single isomer, unassigned) [Compound 262] are 840 nM, 580 nM and “(1.4x)”.
In the same order, the values of `Cn1cnnc1[C@@H](F)C1(c2cccc(N3Cc4c(cc(CN)cc4C(F)(F)F)C3=O)c2)CC(F)(F)C1.O=CO` [Compound 394, (S)-6-(aminomethyl)-2-(3-(3,3-difluoro-1-(fluoro(4-methyl-4H-1,2,4-triazol-3-yl)methyl)cyclobutyl)phenyl)-4-(trifluoromethyl)isoindolin-1-one formate] are 160 nM, 120 nM and “(1.3x)”.
As for `CC(C)[C@H]1CN(C)CCN1Cc1cc2c(c(C(F)(F)F)c1)CN(c1cccc(C3([C@@H](F)c4n[nH]cc4C(F)(F)F)COC3)c1)C2=O` [Compound 377, 2-(3-(3-((R)-fluoro(4-(trifluoromethyl)-1H-pyrazol-3-yl)methyl)oxetan-3-yl)phenyl)-6-(((S)-2-isopropyl-4-methylpiperazin-1-yl)methyl)-4-(trifluoromethyl)isoindolin-1-one], the figures for the IC50 in experiment [1] and in experiment [2] were 20000 nM and 10000 nM, respectively. The “(fold-selectivity)” value in experiment [1] is given as “(2.0x)”.
